Laboratory results reported in US7601726B2, “Substituted pyrazolo[3,4-d]pyrimidines as p38 MAP kinase inhibitors” (Roche Palo Alto LLC, priority 2005, dated 2009).

biological target: T1, p38 MAP kinase (Homo sapiens, UniProt Q16539); assay: p38 (MAP) kinase in vitro assay (transfer of γ-phosphate from γ-33P-ATP to Myelin Basic Protein); assay type: biochemical; conditions: phosphorylated recombinant p38 MAP kinase, MBP substrate, 30° C.
T1 construct: made in house; host or cells: E. coli (co-expressed with SEK-1 and MEKK)
T1 sequence (Q16539 whole entry): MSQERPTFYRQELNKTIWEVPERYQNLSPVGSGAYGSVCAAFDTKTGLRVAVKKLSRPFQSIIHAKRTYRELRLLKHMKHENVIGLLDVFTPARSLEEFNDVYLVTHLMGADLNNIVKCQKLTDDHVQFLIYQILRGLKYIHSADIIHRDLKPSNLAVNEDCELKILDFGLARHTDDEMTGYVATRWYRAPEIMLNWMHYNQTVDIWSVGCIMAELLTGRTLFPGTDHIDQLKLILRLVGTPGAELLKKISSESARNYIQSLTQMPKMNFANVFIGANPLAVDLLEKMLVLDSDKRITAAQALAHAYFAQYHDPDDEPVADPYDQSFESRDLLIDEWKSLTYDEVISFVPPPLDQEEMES
Description: This example illustrates a p38 (MAP) kinase in vitro assay useful for evaluating the compounds of the invention.
The p38 MAP kinase inhibitory activity of compounds of this invention in vitro was determined by measuring the transfer of the γ-phosphate from γ-^33P-ATP by p-38 kinase to Myelin Basic Protein (MBP), using a minor modification of the method described in Ahn, et al., J. Biol. Chem. 266:4220-4227 (1991).
The phosphorylated form of the recombinant p38 MAP kinase was co-expressed with SEK-1 and MEKK in E. Coli (see, Khokhlatchev, et al., J. Biol. Chem. 272:11057-11062 (1997)) and then purified by affinity chromatography using a Nickel column.
The phosphorylated p38 MAP kinase was diluted in kinase buffer (20 mM 3-(N-morpholino)propanesulfonic acid, pH 7.2, 25 mM β-glycerol phosphate, 5 mM ethylene glycol-bis(beta-aminoethyl ether)-N,N,N′,N′-tetraacetic acid, 1 mM sodium ortho-vanadate, 1 mM dithiothreitol, 40 mM magnesium chloride). Test compound dissolved in DMSO or only DMSO (control) was added and the samples were incubated for 10 min at 30° C. The kinase reaction was initiated by the addition of a substrate cocktail containing MBP and γ-^33P-ATP. […] The phosphorylated MBP was then separated from the residual γ-^33P-ATP using a phosphocellulose membrane (Millipore, Bedfrod, Mass.) and quantitated using a scintillation counter (Packard, Meriden, Conn.).

First: OC[C@H](O)CNc1cc(Oc2ccc(F)cc2F)cc2[nH]nc(-c3ccccc3Cl)c12 (stereo in doubt) [3-[3-(2-Chloro-phenyl)-6-(2,4-difluoro-phenoxy)-1H-indazol-4-ylamino]-propane-1,2-diol]
Second: O=C(Nc1n[nH]c2nc(Oc3ccc(F)cc3F)ncc12)c1ccccc1Br [2-Bromo-N-[6-(2,4-difluoro-phenoxy)-1H-pyrazolo[3,4-d]pyrimidin-3-yl]-benzamide]
The IC50 of the first is 4-fold lower: about 4 nM for the first, about 16 nM for the second.

tested on: not given; assay: not given; conditions: not given

First: OC[C@H](O)COc1cc(Oc2ccc(F)cc2F)cc2[nH]nc(-c3ccccc3Cl)c12 (stereo in doubt) [Table 2 #1, 3-[3-(2-Chloro-phenyl)-6-(2,4-difluoro-phenoxy)-1H-indazol-4-yloxy]-propane-1,2-diol]
Second: O=C(Nc1n[nH]c2nc(Oc3ccc(F)cc3F)ncc12)OCc1ccccc1 [Table 1 #42, [6-(2,4-Difluoro-phenoxy)-1H-pyrazolo[3,4-d]pyrimidin-3-yl]-carbamic acid benzyl ester]
The melting point of the first is lower: 93.3 to 94.6 °C for the first, 270.1 to 272 °C for the second.

First: CCS(=O)(=O)Nc1n[nH]c2nc(Oc3ccc(F)cc3F)ncc12 [Table 1 #14, Ethanesulfonic acid [6-(2,4-difluoro-phenoxy)-1H-pyrazolo[3,4-d]pyrimidin-3-yl]-amide]
Second: CC(C)Nc1n[nH]c2nc(Oc3ccc(F)cc3F)ncc12 [Table 1 #1, [6-(2,4-Difluoro-phenoxy)-1H-pyrazolo[3,4-d]pyrimidin-3-yl]-isopropyl-amine]
The melting point of the first is higher: 226 to 226.9 °C for the first, 211.3 to 214.4 °C for the second.

With `O=C(Nc1n[nH]c2nc(Oc3ccc(F)cc3F)ncc12)C1CCCC1` [Table 1 #38, Cyclopentanecarboxylic acid [6-(2,4-difluoro-phenoxy)-1H-pyrazolo[3,4-d]pyrimidin-3-yl]-amide] the melting point was 206.3 to 207.51 °C.
